Results taken from publication PMC9783881, “Synthesis and Preclinical Evaluation of Small-Molecule Prostate-Specific Membrane Antigen-Targeted Abiraterone Conjugate” (Molecules, 2022).

Assays:
cytochrome P450 2C8 = molecular target: T1, cytochrome P450 2C8 (Homo sapiens, UniProt P10632); test: Cytochrome inhibition in human liver microsomes, 2C8; assay type: in vitro ADME; conditions: substrate Paclitaxel, read-out: IC50, 2C8 (PSMA-Abi)
T1 construct: isoenzyme activity in human liver microsomes using conventional sample substrates and HPLC-MS/MS detection; from tissue; host or cells: human liver microsomes
T1 sequence (P10632 1-490): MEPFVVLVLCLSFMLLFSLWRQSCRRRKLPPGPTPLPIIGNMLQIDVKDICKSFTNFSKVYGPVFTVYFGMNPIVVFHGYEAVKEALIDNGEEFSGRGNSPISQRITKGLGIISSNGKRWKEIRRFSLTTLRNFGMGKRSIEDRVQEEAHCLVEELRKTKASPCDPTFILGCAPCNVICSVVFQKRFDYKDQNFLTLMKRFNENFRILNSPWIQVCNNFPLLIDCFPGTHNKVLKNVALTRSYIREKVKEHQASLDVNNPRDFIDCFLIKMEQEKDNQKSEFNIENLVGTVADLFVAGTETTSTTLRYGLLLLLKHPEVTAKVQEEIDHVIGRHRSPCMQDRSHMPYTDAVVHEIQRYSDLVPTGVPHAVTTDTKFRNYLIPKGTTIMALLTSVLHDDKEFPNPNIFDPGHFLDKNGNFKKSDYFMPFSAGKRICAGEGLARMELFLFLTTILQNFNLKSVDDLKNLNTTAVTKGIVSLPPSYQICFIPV
Description: (§1) To assess the effect of drugs on liver cytochrome activity in drug development, test systems with recombinant enzymes and fluorescent substrates as well as microsomes with metabolic substrates and HPLC-MS/MS analysis were used. The present study aimed to investigate the effect of targeted delivery drugs specific to malignant prostate cells on cytochrome P450 (CYP450) isoenzyme activity in human liver microsomes using conventional sample substrates and HPLC-MS/MS detection. Detailed methodological parameters are described in the Supplementary Material.

22Rv1 = test: Single cell ROS measurement with Pt-nanoelectrodes, 22Rv1; assay type: cell-based, human; conditions: 22Rv1, 1 h incubation, IC50 concentration
Procedure: (§2) Commercially available, disk-shaped carbon nanoelectrodes isolated in quartz (ICAPPIC Limited, London, UK) with diameters of 60–100 nm were used to prepare Pt nanoelectrodes for the amperometric detection of intracellular ROS level. Preparation of Pt-nanoelectrodes has been described in detail previously.
(§3) Briefly, a disk-shaped carbon nanoelectrode was etched in a 0.1 M NaOH, 10 mM KCl solution for 20–40 cycles of 10 seconds (from 0 to +2200 mV) to create nanocavities. Electrochemical deposition of platinum in nanocavities was achieved by cycling from 0 to −800 mV with a scan rate of 200 mV s^−1 for 8 to 10 cycles in 2 mM H2PtCl6 solution in 0.1 M hydrochloric acid. […]
(§4) The setup for amperometric measurements included a PC that was connected to a system consisting of an ADC–DAC converter Axon Digidata 1550B (Axon Instruments, Burlingame, CA, USA) and patch-clamp amplifier MultiClamp 700B (Axon Instruments, USA). […] The potential difference between the Pt-nanoelectrode and the reference electrode was recorded with the pClamp 11 software suite (Molecular Devices, Silicon Valley, CA, USA) and processed with Origin 2018 software.
(§5) PC-3 (2.0 × 10^5)/22Rv1 (3.5 × 10^5) cells were seeded in 35 mm Petri dishes, incubated under the conditions described above, and then treated for 24 h. […] Untreated cells were used as a control, which was evaluated at the beginning and at the end of the experiment. […]

[1] = Water solubility (comparison in words); assay type: physicochemical; conditions: compared to AbiAc
cytochrome P450 1A2 = molecular target: T2, cytochrome P450 1A2 (Homo sapiens, UniProt P05177); test: Cytochrome inhibition in human liver microsomes, 1A2; assay type: in vitro ADME; conditions: substrate Phenacetin, read-out: IC50, 1A2 (PSMA-Abi)
T2 construct: isoenzyme activity in human liver microsomes using conventional sample substrates and HPLC-MS/MS detection; from tissue; host or cells: human liver microsomes
T2 sequence (P05177 1-516): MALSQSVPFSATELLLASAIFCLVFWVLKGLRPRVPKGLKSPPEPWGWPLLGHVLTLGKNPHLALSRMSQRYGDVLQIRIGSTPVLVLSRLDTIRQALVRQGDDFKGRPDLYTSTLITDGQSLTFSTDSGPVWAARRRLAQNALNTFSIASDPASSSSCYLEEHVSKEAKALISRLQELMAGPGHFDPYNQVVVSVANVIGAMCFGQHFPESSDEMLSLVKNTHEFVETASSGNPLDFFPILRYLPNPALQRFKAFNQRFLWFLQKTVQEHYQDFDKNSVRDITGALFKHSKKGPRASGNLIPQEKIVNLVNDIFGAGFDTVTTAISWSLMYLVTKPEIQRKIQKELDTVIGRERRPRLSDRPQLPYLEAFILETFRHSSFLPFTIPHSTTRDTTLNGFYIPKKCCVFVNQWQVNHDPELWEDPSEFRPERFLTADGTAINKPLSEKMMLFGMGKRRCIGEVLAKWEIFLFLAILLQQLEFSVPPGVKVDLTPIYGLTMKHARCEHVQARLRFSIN
Description: as §1

PC-3 = test: Single cell ROS measurement with Pt-nanoelectrodes, PC-3; assay type: cell-based, human; conditions: PC-3, 1 h incubation, IC50 concentration
Procedure: as §2, §3, §4, §5

C[C@]12CC[C@H](OC(=O)CCCc3cn(CCCNC(=O)[C@H](Cc4ccc(O)cc4)NC(=O)[C@H](Cc4ccccc4)NC(=O)CCC(=O)NCCCCCC(=O)N(CCCC[C@H](NC(=O)N[C@@H](CCC(=O)O)C(=O)O)C(=O)O)Cc4cccc(Cl)c4)nn3)CC1=CC[C@@H]1[C@@H]2CC[C@]2(C)C(c3cccnc3)=CC[C@@H]12 [PSMA-Abi]
IC50 (cytochrome P450 2C8): 4.4 ± 1.1 µM | ROS (hydrogen peroxide) level in single cells (22Rv1): significant increase in comparison with both the control and AbiAc groups | water solubility [1]: better water solubility compared to the AbiAc | IC50 (cytochrome P450 1A2): 4.5 ± 1.1 µM | ROS (hydrogen peroxide) level in single cells (PC-3): remained at the level of the AbiAc sample
